What all share (assay type): in vivo
Assay [1] relates to AMAPA. The assay can be described thus: Pre-emergence biological efficacy. Particulars: 312 h, evaluated after 13 days, read-out: damage to plant (100=total damage to plant; 0=no damage to plant), AMAPA. As to the method: (§1) Pre-Emergence Biological Efficacy
(§2) Seeds of weeds and/or crops were sown in standard soil in pots. After cultivation for one day under controlled conditions in a glasshouse (at 24/16° C., day/night; 14 hours light; 65% humidity), the plants were sprayed with an aqueous spray solution derived from the formulation of the technical active ingredient in acetone/water (50:50) solution containing 0.5% Tween 20 (polyoxyethylene sorbitan monolaurate, CAS RN 9005-64-5) to give the desired final dose of test compound.
(§3) The test plants were then grown under controlled conditions in the glasshouse (at 24/16° C., day/night; 14 hours light; 65% humidity) and watered twice daily. After 13 days the test was evaluated (100=total damage to plant; 0=no damage to plant).

Assay [2] deals with ECHCG. Description: Pre-emergence biological efficacy. Particulars: Echinochloa crus-galli, 312 h, evaluated after 13 days, read-out: damage to plant (100=total damage to plant; 0=no damage to plant), ECHCG. As to the method: as §1, §2, §3
Assay [3] concerns EPHHL. The assay can be described thus: Pre-emergence biological efficacy. The conditions noted are these: 312 h, evaluated after 13 days, read-out: damage to plant (100=total damage to plant; 0=no damage to plant), EPHHL. As to the method:
as §1, §2, §3

Assay [4] has as its system IPOHE. Description: Pre-emergence biological efficacy. Particulars: Ipomoea hederacea, 312 h, evaluated after 13 days, read-out: damage to plant (100=total damage to plant; 0=no damage to plant), IPOHE. The method, then:
as §1, §2, §3

Assay [5] relates to LOLPE. Description: Pre-emergence biological efficacy. Particulars: 312 h, evaluated after 13 days, read-out: damage to plant (100=total damage to plant; 0=no damage to plant), LOLPE. The method, then:
as §1, §2, §3

Assay [6] has as its system SETFA. Description: Pre-emergence biological efficacy. The conditions noted are these: Setaria faberi, 312 h, evaluated after 13 days, read-out: damage to plant (100=total damage to plant; 0=no damage to plant), SETFA. The method, then:
as §1, §2, §3

For assay [7], the system named is AMAPA. Description: Post-emergence biological efficacy. The conditions noted are these: 312 h, evaluated after 13 days, read-out: damage to plant (100=total damage to plant; 0=no damage to plant), AMAPA. The method, then: (§4) Post-Emergence Biological Efficacy
(§5) Seeds of weeds and/or crops were sown in standard soil in pots. After cultivation for 8 days under controlled conditions in a glasshouse (at 24/16° C., day/night; 14 hours light; 65% humidity), the plants were sprayed with an aqueous spray solution derived from the formulation of the technical active ingredient in acetone/water (50:50) solution containing 0.5% Tween 20 (polyoxyethylene sorbitan monolaurate, CAS RN 9005-64-5) to give the desired final dose of test compound.
(§6) The test plants were then grown on under controlled conditions in a glasshouse (at 24/16° C., day/night; 14 hours light; 65% humidity) and watered twice daily. After 13 days the test was evaluated (100=total damage to plant; 0=no damage to plant).

In assay [8] the test system is CHEAL. The assay can be described thus: Post-emergence biological efficacy. The conditions noted are these: Chenopodium album, 312 h, evaluated after 13 days, read-out: damage to plant (100=total damage to plant; 0=no damage to plant), CHEAL. The method, then:
as §4, §5, §6

The test system of assay [9] is DIGSA. The assay can be described thus: Post-emergence biological efficacy. The conditions noted are these: Digitaria sanguinalis, 312 h, evaluated after 13 days, read-out: damage to plant (100=total damage to plant; 0=no damage to plant), DIGSA. As to the method:
as §4, §5, §6

The test system of assay [10] is ECHCG. The assay can be described thus: Post-emergence biological efficacy. Particulars: Echinochloa crus-galli, 312 h, evaluated after 13 days, read-out: damage to plant (100=total damage to plant; 0=no damage to plant), ECHCG. As to the method:
as §4, §5, §6

In assay [11] the test system is ELEIN. Description: Post-emergence biological efficacy. The conditions noted are these: 312 h, evaluated after 13 days, read-out: damage to plant (100=total damage to plant; 0=no damage to plant), ELEIN. As to the method: as §4, §5, §6
Assay [12] relates to EPHHL. The assay can be described thus: Post-emergence biological efficacy. The conditions noted are these: 312 h, evaluated after 13 days, read-out: damage to plant (100=total damage to plant; 0=no damage to plant), EPHHL. The method, then:
as §4, §5, §6

Assay [13] has as its system IPOHE. Description: Post-emergence biological efficacy. Particulars: Ipomoea hederacea, 312 h, evaluated after 13 days, read-out: damage to plant (100=total damage to plant; 0=no damage to plant), IPOHE. As to the method: as §4, §5, §6
Assay [14] has as its system LOLPE. Description: Post-emergence biological efficacy. The conditions noted are these: 312 h, evaluated after 13 days, read-out: damage to plant (100=total damage to plant; 0=no damage to plant), LOLPE. The method, then:
as §4, §5, §6

Assay [15] concerns SETFA. Description: Post-emergence biological efficacy. Particulars: Setaria faberi, 312 h, evaluated after 13 days, read-out: damage to plant (100=total damage to plant; 0=no damage to plant), SETFA. As to the method: as §4, §5, §6

In the case of `CN(C)S(=O)(=O)NC(=O)C1(C)CC(c2cc(-n3c(=O)n(C)c(=S)n(C)c3=O)c(F)cc2Cl)=NO1` (stereo not drawn) [Compound 305, 3-[2-Chloro-5-(3,5-dimethyl-2,6-dioxo-4-thioxo-1,3,5-triazinan-1-yl)-4-fluoro-phenyl]-N-(dimethylsulfamoyl)-5-methyl-4H-isoxazole-5-carboxamide], the pest or weed control at 250 g/ha in [1] was determined as 100%; in assay [2], 30%; in assay [3] it was 60%; in assay [4], 80%; in assay [5] it was 30%; in [6], 90%. Moreover, the pest or weed control at 250 g/ha in assay [7], in [8], in assay [9], in [10], in [11] and in assay [12] was 100% in each case. Also, the pest or weed control at 250 g/ha in [13], in [14] and in [15] was 100% each time.

For `COC(=O)CO/N=C(\C)C1(C)CC(c2cc(-n3c(=O)n(C)c(=S)n(C)c3=O)c(F)cc2Cl)=NO1` (stereo not drawn) [Compound 299, methyl 2-[1-[3-[2-chloro-5-(3,5-dimethyl-2,6-dioxo-4-thioxo-1,3,5-triazinan-1-yl)-4-fluoro-phenyl]-5-methyl-4H-isoxazol-5-yl]ethylideneamino]oxyacetate], the pest or weed control at 250 g/ha turned out to be 100% in assay [1]; 0% in [2]; 90% in assay [3]; 80% in assay [4]; 60% in assay [5]; 60% in assay [6]. The pest or weed control at 250 g/ha in assay [7] came out at 100%; in assay [8], 100%; in [9], 80%; in assay [10] it was 100%; in [11], 90%; in assay [12], 90%. Further, the pest or weed control at 250 g/ha in assay [13] was 90%; in assay [14], 90%; in [15] it was 100%.

Regarding `CCOC(=O)C1(C)CC(c2cc(-n3c(=O)n(C)c(=S)n(C)c3=O)c(F)cc2Cl)=NO1` (stereo not drawn) [Compound 47, ethyl 3-[2-chloro-5-(3,5-dimethyl-2,6-dioxo-4-thioxo-1,3,5-triazinan-1-yl)-4-fluoro-phenyl]-5-methyl-4H-isoxazole-5-carboxylate], the pest or weed control at 250 g/ha was 100% in [1]; 100% in [2]; 100% in assay [3]; 100% in [4]; 70% in assay [5]; 100% in assay [6]. Further, the pest or weed control at 250 g/ha in assay [7], in assay [8], in assay [9], in assay [10], in assay [11] and in [12] was 100% in each case. In addition, the pest or weed control at 250 g/ha in assay [13], in assay [14] and in [15] was 100% each time.

On to `CO/N=C(\C)C1(C)CC(c2cc(-n3c(=O)n(C)c(=S)n(C)c3=O)c(F)cc2Cl)=NO1` (stereo not drawn) [Compound 293], for which the pest or weed control at 250 g/ha in assay [1] was 100%; in assay [2], 90%; in assay [3] it was 100%; in assay [4], 50%; in [5], 90%; in assay [6], 100%. Moreover, the pest or weed control at 250 g/ha in assay [7] is 100%; in assay [8], 100%; in [9] it was 100%; in assay [10], 30%; in assay [11] it was 90%; in [12], 100%. Further, the pest or weed control at 250 g/ha in assay [13] stood at 100%; in [14], 60%; in assay [15], 90%.

Regarding `COC(=O)C1(OC)CC(c2cc(-n3c(=O)n(C)c(=S)n(C)c3=O)c(F)cc2Cl)=NO1` (stereo not drawn) [Compound 311, Methyl 3-[2-chloro-5-(3,5-dimethyl-2,6-dioxo-4-thioxo-1,3,5-triazinan-1-yl)-4-fluoro-phenyl]-5-methoxy-4H-isoxazole-5-carboxylate], the pest or weed control at 250 g/ha in [1] stood at 100%; in [2] it was 10%; in assay [3], 50%; in assay [4], 70%; in [5], 10%; in assay [6] it was 90%. Moreover, the pest or weed control at 250 g/ha in assay [7] amounted to 90%; in assay [8], 90%; in assay [9], 80%; in assay [10], 90%; in assay [11], 90%; in [12] it was 90%. Besides, the pest or weed control at 250 g/ha in assay [13] was 90%; in assay [14] it was 50%; in [15] it was 100%.

Turning to `Cn1c(=S)n(C)c(=O)n(-c2cc(C3=NOC(C)(C(=O)NS(C)(=O)=O)C3)c(Cl)cc2F)c1=O` (stereo not drawn) [Compound 284, 3-[2-chloro-5-(3,5-dimethyl-2,6-dioxo-4-thioxo-1,3,5-triazinan-1-yl)-4-fluoro-phenyl]-5-methyl-N-methylsulfonyl-4H-isoxazole-5-carboxamide], the pest or weed control at 250 g/ha in [1] worked out at 100%; in [2], 30%; in [3], 100%; in assay [4], 100%; in assay [5], 40%; in assay [6] it was 70%. For the same compound, the pest or weed control at 250 g/ha worked out at 100% in [7]; 100% in [8]; 100% in assay [9]; 100% in assay [10]; 100% in [11]; 90% in assay [12]. Besides, the pest or weed control at 250 g/ha in assay [13] is 100%; in assay [14], 80%; in assay [15], 100%.
